Assay results reported in publication PMC4727778, “Synthesis and Antifungal Evaluation of Novel N-Alkyl Tetra- and Perhydroquinoline Derivatives” (Scientia Pharmaceutica, 2014).

What was measured:
Assay in all cases: Agar diffusion assay
Type in all cases: cell-based
[1] = tested on: Aspergillus niger (DSMZ-Nr. 1988); details: A. niger, GI = growth inhibition, read-out: diameter of zones of total inhibition
Description: (§1) The resulting compounds and known compounds, 1-undecylpiperidine (7) and 1-decylpiperazine (8a), as well as 1-methyl-4-undecylpiperazine (8b) (prepared in the same way), were tested in an agar diffusion assay against Gram-positive (Staphylococcus equorum (DSMZ-Nr. 20675), Streptococcus entericus (DSZM-Nr. 14446)) and Gram-negative bacteria (Escherichia coli (DSMZ-Nr. 426), Pseudomonas marginalis (DSMZ-Nr. 7527)), as well as the fungi Yarrowia lipolytica (DSMZ-Nr. 1345), Candida glabrata (DSMZ-Nr.11226), Aspergillus niger (DSMZ-Nr. 1988), and Hyphopichia burtonii (DSMZ-Nr. 70663) (Table 1).

[2] = tested on: Yarrowia lipolytica (DSMZ-Nr. 1345); details: Y. lipolytica, GI = growth inhibition, read-out: diameter of zones of total inhibition
Description: as §1

[3] = tested on: Hyphopichia burtonii (DSMZ-Nr. 70663); details: H. burtonii, GI = growth inhibition, read-out: diameter of zones of total inhibition
Description: as §1

[4] = tested on: Candida glabrata (DSMZ-Nr.11226); details: Nakaseomyces glabratus, C. glabrata, GI = growth inhibition, read-out: diameter of zones of total inhibition
Description: as §1

[5] = tested on: Streptococcus entericus (DSZM-Nr. 14446); details: S. entericus, GI = growth inhibition, read-out: diameter of zones of total inhibition
Description: as §1

[6] = tested on: Escherichia coli (DSMZ-Nr. 426); details: E. coli, GI = growth inhibition, read-out: diameter of zones of total inhibition
Description: as §1

[7] = tested on: Pseudomonas marginalis (DSMZ-Nr. 7527); details: P. marginalis, GI = growth inhibition, read-out: diameter of zones of total inhibition
Description: as §1

[8] = tested on: Staphylococcus equorum (DSMZ-Nr. 20675); details: read-out: diameter of zones of total inhibition
Description: as §1

| Structure (SMILES) | zone of inhibition at 50 µg/disc [1] | zone of inhibition at 50 µg/disc [2] | zone of inhibition at 50 µg/disc [3] | zone of inhibition at 50 µg/disc [4] | zone of inhibition at 50 µg/disc [5] | zone of inhibition at 50 µg/disc [6] | zone of inhibition at 50 µg/disc [7] | zone of inhibition at 50 µg/disc [8] |
| --- | --- | --- | --- | --- | --- | --- | --- | --- |
| CCCCCCCCCN1CCC[C@@H]2CCCC[C@H]21 (racemic) [Compound 4a, (±)-trans-1-Nonyldecahydroquinoline] | 7 mm | 15 mm | 12 mm | 14 mm | 20 mm | 0 mm | 13 mm | 10 mm |
| CCCCCCCCCCN1CCC[C@@H]2CCCC[C@H]21 (racemic) [Compound 4b, (±)-trans-1-Decyldecahydroquinoline] | 12 mm | 19 mm | 20 mm | 16 mm | 22 mm | 0 mm | 15 mm | 13 mm |
| CCCCCCCCCCCN1CCC[C@@H]2CCCC[C@H]21 (racemic) [Compound 4c, (±)-trans-1-Undecyldecahydroquinoline] | 14 mm | 13 mm | 13 mm | 13 mm | 20 mm | 0 mm | 11 mm | 12 mm |
| CCCCCCCCCCCCN1CCC[C@@H]2CCCC[C@H]21 (racemic) [Compound 4d, (±)-trans-1-Dodecyldecahydroquinoline] | – | 9 mm | 11 mm | 9 mm | 12 mm | 0 mm | 14 mm | 9 mm |
| CCCCCCCCCN1CCCc2ccccc21 [Compound 2a, 1-Nonyl-1,2,3,4-tetrahydroquinoline] | 0 mm | 0 mm | 0 mm | 0 mm | 0 mm | 0 mm | 0 mm | 0 mm |
| CCCCCCCCCCN1CCCc2ccccc21 [Compound 2b, 1-Decyl-1,2,3,4-tetrahydroquinoline] | 0 mm | 0 mm | 0 mm | 0 mm | 0 mm | 0 mm | 0 mm | 0 mm |
| CCCCCCCCCCCN1CCCc2ccccc21 [Compound 2c, 1-Undecyl-1,2,3,4-tetrahydroquinoline] | 0 mm | 0 mm | 0 mm | 0 mm | 0 mm | 0 mm | 0 mm | 0 mm |
| CCCCCCCCCCCCN1CCCc2ccccc21 [Compound 2d, 1-Dodecyl-1,2,3,4-tetrahydroquinoline] | 0 mm | 0 mm | 0 mm | 0 mm | 0 mm | 0 mm | 0 mm | 0 mm |
| CN(C/C=C/C#CC(C)(C)C)Cc1cccc2ccccc12 [terbinafine, reference compound] | 26 mm | 12 mm | 15 mm | 0 mm | – | – | – | – |
| CN(C)[C@@H]1C(O)=C(C(N)=O)C(=O)[C@@]2(O)C(O)=C3C(=O)c4c(O)cccc4[C@@](C)(O)[C@H]3C[C@@H]12 [tetracycline, reference compound] | 0 mm | 0 mm | 0 mm | 0 mm | 10 mm | 26 mm | 12 mm | 30 mm |
